Type in all cases: biochemical
One experiment has as its target Pim-2 (Homo sapiens (Human), UniProt Q9P1W9). Description: Pim-2 kinase assay. The procedure:
Pim-2 kinase assay-20 μL reactions were run in white 384 well polystyrene plates dotted with 0.8 μL compound/DMSO in the assay buffer (50 mM Tris, pH 7.5, 0.01% Tween-20, 5 mM MgCl2, 0.01% BSA, 5 mM DTT), containing 0.05 μM Fluorescein-labeled CREBtide peptide substrate (Invitrogen PV3508), 1 mM ATP, and 1 nM enzyme (Invitrogen PV3649) for 2 h at 25° C. Reactions were stopped by addition of 10 μL TR-FRET Dilution Buffer (Invitrogen PV3574) with 30 mM EDTA and 1.5 nM LanthaScreen Tb-CREB pSer133 antibody (Invitrogen PV3566). After 30 min. incubation at room temperature, plates were read on a PHERAstar FS plate reader (BMG Labtech).
Although the above in vitro assays are conducted at 1 mM ATP compounds can also be evaluated for potency and in vitro activity against PIM targets utilizing Km conditions, where the concentration of ATP is set to the Km value and the assay is more sensitive to PIM inhibition activity.

A further experiment addresses Pim-3 (Homo sapiens (Human), UniProt Q86V86). Description: Pim-3 kinase assay. The settings on record: 1 mM ATP; read-out: Pim3 IC50. The procedure: Pim-1 and Pim-3 kinase assays-20 μL reactions were run in white 384 well polystyrene plates dotted with 0.8 μL compound/DMSO in the assay buffer (50 mM Tris, pH 7.5, 0.01% Tween-20, 5 mM MgCl2, 0.01% BSA, 5 mM DTT), containing 0.05 μM Biotin-labeled BAD peptide substrate (AnaSpec 62269), 1 mM ATP, and […] (Pim-1, Invitrogen PV3503) or […] (Pim-3, Millipore 14-738) enzyme for 1 h at 25° C. Reactions were stopped by addition of 10 μL STOP Buffer (150 mM Tris, pH=7.5, 150 mM NaCl, 75 mM EDTA, 0.01% Tween-20, 0.3% BSA) supplemented with Phospho-Bad (Ser112) Antibody (Cell Signaling 9291) diluted 666-fold, and Streptavidin donor beads (PerkinElmer 6760002) along with Protein-A acceptor beads (PerkinElmer 6760137) at 15 μg/mL each. Supplementation of the STOP buffer with beads and stopping the reactions were done under reduced light. Prior to the stopping reactions STOP buffer with beads was pre-incubated for 1 h in the dark at room temperature. After stopping the reactions, plates were incubated for 1 h in the dark at room temperature before reading on a PHERAstar FS plate reader (BMG Labtech) under reduced light.

For the next experiment, the target named is Pim-1 (Homo sapiens (Human), UniProt P11309). As to the kind of experiment: Pim-1 kinase assay. The settings on record: 1 mM ATP; read-out: Pim1 IC50. The procedure: Supplementation of the STOP buffer with beads and stopping the reactions were done under reduced light. Prior to the stopping reactions STOP buffer with beads was pre-incubated for 1 h in the dark at room temperature. After stopping the reactions, plates were incubated for 1 h in the dark at room temperature before reading on a PHERAstar FS plate reader (BMG Labtech) under reduced light.
Chain of Pim-1 (P11309 whole entry): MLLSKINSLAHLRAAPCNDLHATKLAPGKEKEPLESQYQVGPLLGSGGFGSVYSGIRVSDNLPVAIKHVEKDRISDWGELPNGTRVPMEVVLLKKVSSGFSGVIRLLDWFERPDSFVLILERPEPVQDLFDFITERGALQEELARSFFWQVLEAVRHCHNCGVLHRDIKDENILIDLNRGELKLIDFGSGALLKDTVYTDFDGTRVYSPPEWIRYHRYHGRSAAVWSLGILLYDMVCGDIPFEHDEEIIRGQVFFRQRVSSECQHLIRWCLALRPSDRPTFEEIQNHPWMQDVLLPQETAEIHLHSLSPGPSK

Drawing on patent US10265307B2, “Thiazolecarboxamides and pyridinecarboxamide compounds useful as Pim kinase inhibitors” (Incyte Corporation, priority 2013, dated 2019), this text covers IC50 for 25 molecules.

Where two headings read alike, the source gives them in different places.

Chain of Pim-2 (Q9P1W9 whole entry): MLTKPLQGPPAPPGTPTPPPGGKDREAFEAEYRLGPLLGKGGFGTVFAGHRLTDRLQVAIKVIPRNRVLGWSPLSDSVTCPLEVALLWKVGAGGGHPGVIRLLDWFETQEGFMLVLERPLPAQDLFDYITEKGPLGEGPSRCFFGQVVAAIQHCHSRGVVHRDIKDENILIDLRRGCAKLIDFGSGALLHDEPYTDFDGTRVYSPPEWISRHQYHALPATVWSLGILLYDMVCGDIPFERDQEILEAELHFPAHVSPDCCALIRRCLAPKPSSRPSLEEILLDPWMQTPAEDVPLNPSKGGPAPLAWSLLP

Take `N#CC1CCc2c1ncc(NC(=O)c1nc(-c3c(F)cccc3F)sc1N)c2N1CCC[C@H](N)C1` (single isomer, unassigned) [18 (Diastereoisomer 2)]: the IC50 on Pim-2 (1 mM ATP, read-out: Pim2 IC50) was 100 to 1000 nM; on Pim-3 it was at most 100 nM; on Pim-1 it was at most 100 nM.
In the case of `COc1ccc(F)c(-c2nc(C(=O)Nc3cnc4c(c3N3C[C@H](C)C[C@H](N)C3)CCC4O)c(N)s2)c1F` (single isomer, unassigned) [54 (Diastereoisomer 2)], the IC50 on Pim-2 (1 mM ATP, read-out: Pim2 IC50) was at most 100 nM; on Pim-3, at most 100 nM; at Pim-1, at most 100 nM.
Turning to `N[C@H]1CCCN(c2c(NC(=O)c3ccc(F)c(-c4c(F)cccc4F)n3)cnc3c2CCC3O)C1` (single isomer, unassigned) [22 (Diastereoisomer 2)], the IC50 on Pim-2 (1 mM ATP, read-out: Pim2 IC50) was at most 100 nM; on Pim-3, at most 100 nM; on Pim-1 it was at most 100 nM.
As to `C[C@@H]1C[C@H](N)CN(c2c(NC(=O)c3ccc(F)c(-c4c(F)cc(OC5CCCOC5)cc4F)n3)cnc3c2CCC3O)C1` (single isomer, unassigned) [70 (Diastereoisomer 1)], the IC50 on Pim-2 (1 mM ATP, read-out: Pim2 IC50) was at most 100 nM; on Pim-3, at most 100 nM; on Pim-1, at most 100 nM.
`C[C@H]1CN(c2c(NC(=O)c3ccc(F)c(-c4c(F)cccc4F)n3)cnc3c2CCO3)C[C@@H](N)[C@@H]1O` [Example 41, N-{4-[(3R,4R,5S)-3-Amino-4-hydroxy-5-methylpiperidin-1-yl]-2,3-dihydrofuro[2,3-b]pyridin-5-yl}-6-(2,6-difluorophenyl)-5-fluoropyridine-2-carboxamide]: the IC50 at Pim-2 (1 mM ATP, read-out: Pim2 IC50) is at most 100 nM; at Pim-3, at most 100 nM; at Pim-1, at most 100 nM.
In the case of `C[C@@H]1C[C@H](N)CN(c2c(NC(=O)c3nc(-c4c(F)cccc4F)c(F)cc3N)cnc3c2CCC3O)C1` (single isomer, unassigned) [46 (Diastereoisomer 2)], the IC50 on Pim-2 (1 mM ATP, read-out: Pim2 IC50) was at most 100 nM; on Pim-3, at most 100 nM; on Pim-1 it was at most 100 nM.
As to `COCc1cc(F)c(-c2nc(C(=O)Nc3cnc4c(c3N3C[C@H](C)C[C@H](N)C3)CCC4O)ccc2F)c(F)c1` (single isomer, unassigned) [64 (Diastereoisomer 2)], the IC50 at Pim-2 (1 mM ATP, read-out: Pim2 IC50) is at most 100 nM; on Pim-3 it was at most 100 nM; at Pim-1, at most 100 nM.
In the case of `COc1ccc(F)c(-c2nc(C(=O)Nc3cnc4c(c3N3CCC[C@H](N)C3)CCC4O)c(N)s2)c1F` (single isomer, unassigned) [53 (Diastereoisomer 1)], the IC50 at Pim-2 (1 mM ATP, read-out: Pim2 IC50) is at most 100 nM; on Pim-3, at most 100 nM; on Pim-1, at most 100 nM.
On to `Nc1sc(-c2c(F)cccc2F)nc1C(=O)Nc1cnc2c(c1N1C[C@@H](N)C[C@@H](C(F)(F)F)C1)CCC2O` (single isomer, unassigned) [44 (Diastereoisomer 1)], for which the IC50 at Pim-2 (1 mM ATP, read-out: Pim2 IC50) was at most 100 nM; on Pim-3, at most 100 nM; on Pim-1, at most 100 nM.
As for `C[C@@H]1C[C@H](N)CN(c2c(NC(=O)c3nc(-c4c(F)cccc4F)sc3N)cnc3c2CCC3O)C1` (single isomer, unassigned) [47 (Diastereoisomer 1)], the IC50 is at most 100 nM on Pim-2 (1 mM ATP, read-out: Pim2 IC50); at most 100 nM on Pim-3; at most 100 nM on Pim-1.
For the molecule `C[C@@H]1C[C@H](N)CN(c2c(NC(=O)c3ccc(F)c(-c4c(F)cccc4F)n3)cnc3c2CCC3O)C1` (single isomer, unassigned) [45 (Diastereoisomer 1)], the IC50 on Pim-2 (1 mM ATP, read-out: Pim2 IC50) is at most 100 nM; on Pim-3 it was at most 100 nM; on Pim-1, at most 100 nM.
Turning to `C[C@H]1CN(c2c(NC(=O)c3ccc(F)c(-c4c(F)cccc4F)n3)cnc3c2CCC3O)C[C@@H](N)C1(C)O` (single isomer, unassigned) [63 (Diastereoisomer 2)], the IC50 was at most 100 nM on Pim-2 (1 mM ATP, read-out: Pim2 IC50); at most 100 nM at Pim-3; at most 100 nM on Pim-1.
Consider `C[S+]([O-])c1cc(F)c(-c2nc(C(=O)Nc3cnc4c(c3N3CCC[C@H](N)C3)CCC4O)ccc2F)c(F)c1` (single isomer, unassigned) [59 (Diastereoisomer 2)], for which the IC50 is 100 to 1000 nM at Pim-2 (1 mM ATP, read-out: Pim2 IC50); at most 100 nM at Pim-3; at most 100 nM on Pim-1.
Take `Nc1sc(-c2c(F)cccc2F)nc1C(=O)Nc1cnc2c(c1N1CCC[C@H](N)C1)CCC2O` (single isomer, unassigned) [15 (Diastereoisomer 2)]: the IC50 is at most 100 nM at Pim-2 (1 mM ATP, read-out: Pim2 IC50); at most 100 nM on Pim-3; at most 100 nM on Pim-1.
As to `N#CC1CCc2c1ncc(NC(=O)c1nc(-c3c(F)cccc3F)sc1N)c2N1CCC[C@H](N)C1` (single isomer, unassigned) [18 (Diastereoisomer 1)], the IC50 at Pim-2 (1 mM ATP, read-out: Pim2 IC50) is 100 to 1000 nM; on Pim-3, at most 100 nM; on Pim-1, at most 100 nM.
With `N[C@H]1CCCN(c2c(NC(=O)c3csc(-c4c(F)cccc4F)n3)cnc3[nH]ncc23)C1` [compound 35], the IC50 at Pim-2 (Km ATP concentration rather than 1 mM, read-out: Pim2 IC50 at Km ATP concentration) was in the range of 1000 to 10000 nM.
For the molecule `N[C@@H]1CN(c2c(NC(=O)c3ccc(F)c(-c4c(F)cccc4F)n3)cnc3c2CCC3O)C[C@H](C2CC2)[C@H]1O` (single isomer, unassigned) [68 (Diastereoisomer 1)], the IC50 on Pim-2 (1 mM ATP, read-out: Pim2 IC50) is at most 100 nM; on Pim-3, at most 100 nM; at Pim-1 it was at most 100 nM.
With `C[C@H]1CN(c2c(NC(=O)c3nc(-c4c(F)cccc4F)sc3N)cnc3c2CCO3)C[C@@H](N)[C@@H]1O` [Example 40, 5-Amino-N-{4-[(3R,4R,5S)-3-amino-4-hydroxy-5-methylpiperidin-1-yl]-2,3-dihydrofuro[2,3-b]pyridin-5-yl}-2-(2,6-difluorophenyl)-1,3-thiazole-4-carboxamide], the IC50 on Pim-2 (1 mM ATP, read-out: Pim2 IC50) was at most 100 nM; on Pim-3 it was at most 100 nM; on Pim-1 it was at most 100 nM.
For `N[C@H]1CCCN(c2c(NC(=O)c3csc(-c4c(F)cccc4F)n3)cnc3c2CCC3O)C1` (single isomer, unassigned) [16 (Diastereoisomer 2)], the IC50 on Pim-2 (1 mM ATP, read-out: Pim2 IC50) was over 2000 nM; on Pim-3, at most 100 nM; at Pim-1, at most 100 nM.
For the molecule `CC1(O)CCc2c1ncc(NC(=O)c1nc(-c3c(F)cccc3F)sc1N)c2N1CCC[C@H](N)C1` (single isomer, unassigned) [19 (Diastereoisomer 2)], the IC50 was 100 to 1000 nM at Pim-2 (1 mM ATP, read-out: Pim2 IC50); at most 100 nM at Pim-3; at most 100 nM at Pim-1.
`C[S+]([O-])c1cc(F)c(-c2nc(C(=O)Nc3cnc4c(c3N3CCC[C@H](N)C3)CCC4O)ccc2F)c(F)c1` (single isomer, unassigned) [59 (Diastereoisomer 1)]: the IC50 on Pim-2 (1 mM ATP, read-out: Pim2 IC50) was 100 to 1000 nM; at Pim-3, at most 100 nM; on Pim-1, at most 100 nM.
As for `COc1ccc(F)c(-c2nc(C(=O)Nc3cnc4c(c3N3C[C@H](C)C[C@H](N)C3)CCO4)ccc2F)c1F` [Example 73, N-{4-[(3S,5R)-3-Amino-5-methylpiperidin-1-yl]-2,3-dihydrofuro[2,3-b]pyridin-5-yl}-6-(2,6-difluoro-3-methoxyphenyl)-5-fluoropyridine-2-carboxamide], the IC50 at Pim-2 (1 mM ATP, read-out: Pim2 IC50) was at most 100 nM; at Pim-3, at most 100 nM; on Pim-1 it was at most 100 nM.
`C[C@H]1CN(c2c(NC(=O)c3nc(-c4c(F)cccc4F)sc3N)cnc3c2CCC3O)C[C@@H](N)[C@@H]1O` (single isomer, unassigned) [49 (Diastereoisomer 1)]: the IC50 at Pim-2 (1 mM ATP, read-out: Pim2 IC50) is at most 100 nM; at Pim-3 it was at most 100 nM; on Pim-1, at most 100 nM.
On to `N[C@H]1CCCN(c2c(NC(=O)c3ccc(F)c(-c4c(F)cccc4F)n3)cnc3c2CCC3O)C1` (single isomer, unassigned) [22 (Diastereoisomer 1)], for which the IC50 on Pim-2 (1 mM ATP, read-out: Pim2 IC50) is 100 to 1000 nM; at Pim-3, at most 100 nM; at Pim-1, at most 100 nM.
Turning to `C[C@@H]1C[C@H](N)CN(c2c(NC(=O)c3nc(-c4c(F)cccc4F)sc3N)cnc3c2CCC3O)C1` (single isomer, unassigned) [47 (Diastereoisomer 2)], the IC50 on Pim-2 (1 mM ATP, read-out: Pim2 IC50) was at most 100 nM; on Pim-3, at most 100 nM; on Pim-1, at most 100 nM.
